{
  "source": "patent US20230203081A1",
  "about": "“LINCOSAMIDE ANTIBIOTICS AND USES THEREOF” (President and Fellows of Harvard College, priority 2020, published 2023)",
  "key": {"E. coli strain SQ110DTC": {"test_system": "E. coli strain SQ110DTC", "assay": "Selection of FSA-513018b resistant mutants in SQ110DTC", "type": "cell-based", "details": "SQ110DTC plated on agar containing FSA-513018b", "experimental": "[…]. […] Approximately 20 colonies appeared on both plates after incubation at 37° C. for 24 h. The segment of the 23S rRNA gene corresponding to domains V and VI of the 23S rRNA was PCR-amplified from 14 randomly selected colonies using the primers 2020R (CCCGAGACTCAGTGAAATTGAACTC) and L2904 (AAG GTT AAG CCT CAC GG). PCR products were sequenced using the primer L2667 (GGTCCTCTCGTACTAGGAGCAG)."}, "E. faecalis ATCC 29212": {"test_system": "E. faecalis ATCC 29212", "assay": "Spontaneous resistance in standard bacterial strains", "type": "cell-based", "details": "agar with 4×, 8×, 16× MIC, 3 days", "experimental": "(§1) […]. Bacterial strains (S. aureus ATCC 29213, S. aureus MRSA, and E. faecalis ATCC 29212) were suspended in normal saline and optical density was adjusted to 1.50 at 600 nm. Bacterial counts were measured by serial dilution and plating. Bacterial inoculum (250 μL) was transferred to the media plate and was spread evenly. Plates were incubated at 37° C. for 3 days, and were observed daily for resistant colonies to emerge."}, "[1]": {"test_system": "S. aureus ATCC 29213, S. aureus MRSA", "assay": "Spontaneous resistance in standard bacterial strains", "type": "cell-based", "details": "agar with 4×, 8×, 16× MIC, 3 days", "experimental": "as §1"}, "[2]": {"test_system": "susceptible S. aureus and E. faecium strains", "assay": "Time-kill studies", "type": "cell-based", "experimental": ". Experiments were performed in duplicate following CLSI guidelines. An inoculum was prepared in Mueller-Hinton broth (MHB) containing 0.5-5×10^6 CFU/mL of test organism. Cultures were incubated at 37° C. in a shaker incubator at 110 rpm; a flask containing bacteria left unexposed to antibiotic was used as untreated control. At time points 0, 1, 3, 6, and 24 h following administration of antibiotic, bacterial counts were determined from each flask by serial dilution and plating on brain heart infusion agar (BD, Sparks, M D). Plates were incubated at 37° C. in incubators for 18-24 hours to determine bacterial counts. For streptococcal strains, blood agar plates (Tryptic Soy Agar with 5% Sheep Blood) were used for culturing the organisms (plates were incubated in the presence of 5% CO2), and time-kill studies were performed in media supplemented with 5% laked horse blood."}, "[3]": {"test_system": "susceptible S. aureus and E. faecium strains", "assay": "Post-antibiotic effect (PAE) and post-antibiotic sub-MIC effect (PA-SME)", "type": "cell-based", "details": "following brief exposure; result in words", "experimental": "Post-antibiotic and post-antibiotic sub-MIC effect: Measurements of PAE and PA-SME durations were performed according to the methods described by Odenholt-Tornqvist and co-workers. […] A flask containing the unexposed bacterial strain was left as untreated control. Post-exposure, 100 μL of bacterial culture was diluted in 900 μL of sterile CaMHB; 100 μL of this diluted sample was immediately diluted further in 19.9 mL of sterile CaMHB (1:2,000 final dilution). […] Flasks were incubated at 37° C. in a shaker incubator (110 rpm). Samples (100 μL from each flask per time point) were collected at 0, 1, 3, 6, and 24 h from each flask and were serially diluted. From each dilution, 100 μL and 10 μL from each dilution were plated in duplicate on TSA plates. Plates were incubated overnight at 35° C. to determine the bacterial counts (limit of detection=20 CFU/plate or 2×10^2 CFU/mL). These counts were plotted against time with linear interpolation between time points to obtain the growth-kinetic curves. PAE and PA-SME were determined from these curves using the formulae: […]\nwhere T is the time required for bacteria previously exposed to antibiotic to multiply 1 log10 above counts immediately following dilution, and C is the corresponding time required for untreated culture to do the same; and […]"}, "human erythrocytes": {"test_system": "human erythrocytes", "assay": "Hemolysis of human erythrocytes relative to Triton X-100", "type": "cell-based", "details": "result in words"}, "[4]": {"assay": "Mouse pharmacokinetics i.v. and p.o.", "parameters": "species or system mice", "details": "in vivo, 60 mg/kg"}, "[5]": {"assay": "Microsomal intrinsic clearance (Clint,mic), species h", "type": "in vitro ADME, human", "parameters": "unit not given here"}, "[6]": {"assay": "Plasma protein binding, species m", "type": "in vitro ADME", "details": "mouse"}, "E. coli HAV504": {"test_system": "E. coli HAV504", "assay": "Murine neutropenic thigh infection model", "type": "in vivo, mice", "details": "neutropenic mouse thigh, E. coli HAV504 (FIG. 4C)"}, "S. pyogenes ATCC 19615": {"test_system": "S. pyogenes ATCC 19615", "type": "in vivo", "experimental": "The optical density of the bacterial suspension was adjusted to 0.1 at 600 nm using sterile BHIB and was then further diluted 1:1 in 10% hog gastric mucin (HGM, type III) to prepare the infecting inoculum in 5% HGM. Mice were infected by intraperitoneal injection of 250 μL, infecting inoculum, representing 1-2×10^6 CFU per animal. […] Animals were monitored for survival for seven days following infection."}, "[7]": {"details": "mouse, microsomes"}},
  "note": "Entries after “also recorded” stand apart in the source; their conditions may differ. Like-named read-outs stand apart in the source and are kept apart here.",
  "data": [
    {"smiles": "CSC1O[C@H]([C@H](NC(=O)[C@H]2NC[C@@H]3C[C@H](CC(C)C)CCO[C@H]32)[C@H](C)Cl)C(O)[C@@H](O)[C@H]1O", "note": "(stereo partly drawn) [FSA-513018b]", "values": [
      {"measurement": "frequency of resistant clones", "setting": "E. coli strain SQ110DTC", "result": "~10^−8"},
      {"measurement": "spontaneous resistance", "setting": "E. faecalis ATCC 29212", "result": "not observed; also recorded: No colonies were noted on any plate"},
      {"measurement": "spontaneous resistance", "setting": "[1]", "result": "not observed; also recorded: No colonies were noted on any plate"},
      {"measurement": "cidality in time-kill", "setting": "[2]; certain highly susceptible strains", "result": "concentration-dependent cidality"},
      {"measurement": "mode of action in broth culture profiling (time-kill)", "setting": "[2]; result in words", "result": "bacteriostatic"},
      {"measurement": "post-antibiotic effect on bacterial growth", "setting": "[3]", "result": "prolonged effects on bacterial growth"},
      {"measurement": "hemolysis", "setting": "human erythrocytes", "result": "non-hemolytic"},
      {"measurement": "AUC", "setting": "[4]; iv", "result": "6800 ± 1300", "unit": "ng·h/mL"},
      {"measurement": "Cmax", "setting": "[4]; iv", "result": "7900 ± 3000", "unit": "ng/mL"},
      {"measurement": "MRT", "setting": "[4]; iv", "result": 1.2, "unit": "h"},
      {"measurement": "clearance", "setting": "[4]; iv", "result": 148, "unit": "mL/min/kg"},
      {"measurement": "Vd", "setting": "[4]; iv, read-out: Vss", "result": "12.5 ± 0.4", "unit": "L/kg"},
      {"measurement": "AUC", "setting": "[4]; po", "result": "1600 ± 400", "unit": "ng·h/mL"},
      {"measurement": "Cmax", "setting": "[4]; po", "result": "1600 ± 700", "unit": "ng/mL"},
      {"measurement": "bioavailability", "setting": "[4]; po", "result": 24, "unit": "%"},
      {"measurement": "Clint,mic", "setting": "[5]", "result": 34},
      {"measurement": "fraction unbound", "setting": "[6]", "result": 0.05},
      {"measurement": "efficacy in thigh infection model", "setting": "E. coli HAV504", "result": "effective"},
      {"measurement": "Mice surviving", "setting": "S. pyogenes ATCC 19615; 1 mg/kg i.v., Day 1, n=8, clindamycin given as clindamycin phosphate", "result": 8},
      {"measurement": "Mice surviving", "setting": "S. pyogenes ATCC 19615; 1 mg/kg i.v., Day 2, n=8", "result": 7},
      {"measurement": "Mice surviving", "setting": "S. pyogenes ATCC 19615; 1 mg/kg i.v., Day 3, n=8", "result": 7},
      {"measurement": "Mice surviving", "setting": "S. pyogenes ATCC 19615; 1 mg/kg i.v., Day 4, n=8", "result": 7},
      {"measurement": "Mice surviving", "setting": "S. pyogenes ATCC 19615; 1 mg/kg i.v., Day 5, n=8", "result": 7},
      {"measurement": "Mice surviving", "setting": "S. pyogenes ATCC 19615; 1 mg/kg i.v., Day 6, n=8", "result": 7},
      {"measurement": "Mice surviving", "setting": "S. pyogenes ATCC 19615; 1 mg/kg i.v., Day 7, n=8", "result": 7},
      {"measurement": "Mice surviving", "setting": "S. pyogenes ATCC 19615; 3 mg/kg i.v., Day 1, n=8", "result": 8},
      {"measurement": "Mice surviving", "setting": "S. pyogenes ATCC 19615; 3 mg/kg i.v., Day 2, n=8", "result": 8},
      {"measurement": "Mice surviving", "setting": "S. pyogenes ATCC 19615; 3 mg/kg i.v., Day 3, n=8", "result": 8},
      {"measurement": "Mice surviving", "setting": "S. pyogenes ATCC 19615; 3 mg/kg i.v., Day 4, n=8", "result": 8},
      {"measurement": "Mice surviving", "setting": "S. pyogenes ATCC 19615; 3 mg/kg i.v., Day 5, n=8", "result": 8},
      {"measurement": "Mice surviving", "setting": "S. pyogenes ATCC 19615; 3 mg/kg i.v., Day 6, n=8", "result": 8},
      {"measurement": "Mice surviving", "setting": "S. pyogenes ATCC 19615; 3 mg/kg i.v., Day 7, n=8", "result": 8},
      {"measurement": "Mice surviving", "setting": "S. pyogenes ATCC 19615; 10 mg/kg i.v., Day 1, n=8", "result": 8},
      {"measurement": "Mice surviving", "setting": "S. pyogenes ATCC 19615; 10 mg/kg i.v., Day 2, n=8", "result": 8},
      {"measurement": "Mice surviving", "setting": "S. pyogenes ATCC 19615; 10 mg/kg i.v., Day 3, n=8", "result": 8},
      {"measurement": "Mice surviving", "setting": "S. pyogenes ATCC 19615; 10 mg/kg i.v., Day 4, n=8", "result": 8},
      {"measurement": "Mice surviving", "setting": "S. pyogenes ATCC 19615; 10 mg/kg i.v., Day 5, n=8", "result": 8},
      {"measurement": "Mice surviving", "setting": "S. pyogenes ATCC 19615; 10 mg/kg i.v., Day 6, n=8", "result": 8},
      {"measurement": "Mice surviving", "setting": "S. pyogenes ATCC 19615; 10 mg/kg i.v., Day 7, n=8", "result": 8},
      {"measurement": "rescue of infected animals", "setting": "S. pyogenes ATCC 19615; S. pyogenes systemic infection, i.v. twice daily for two days", "result": "complete rescue"},
      {"measurement": "tolerability", "setting": "S. pyogenes ATCC 19615; infected mice, 1, 3 or 10 mg/kg i.v. twice daily for two days, all dose levels", "result": "well-tolerated"},
      {"measurement": "Clint,mic", "setting": "[7]", "result": 21}
    ]}
  ]
}
